According to US10899699B2, “Vinylogous phenethylamines as neurotransmitter releasers” (RESEARCH TRIANGLE INSTITUTE, priority 2016, dated 2021):
Like-named read-outs stand apart in the source and are kept apart here.

Legend:
human 5-HT2A receptor = molecular target: T1, human 5-HT2A receptor (Homo sapiens, UniProt P28223); assay: 5-HT2A calcium mobilization assay in HEK293 cells (agonist activity); format: cell-based; conditions: for EC50 / Emax / 5-HT2A EC50, (nM ± SEM): calcium mobilization; for Emax: efficacy
T1 construct: expressed in transfected cells
Description: (§1) BAT activity was measured using synaptosomes prepared from rat brain homogenates according to the protocol developed by Rothman and co-workers (Rothman, et al., Eur. J. Pharmacol. 2002, 447(1), 51). Compounds were first screened in uptake inhibition and release assays to determine the exact mode of drug action. Compounds active in both assays are releasers while compounds active only in the uptake inhibition assay are uptake inhibitors. Active compounds were then fully characterized by running 8-point concentration response curves in the assay corresponding to their mechanism of action. Substrate reversal experiments were conducted to validate substrate activity. The analogs were also tested for agonist activity at the serotonin-2 receptor subtypes (5-HT2A, 5-HT2B, 5-HT2C) using in vitro calcium mobilization assays in transfected HEK293 cells as previously described. These receptors are associated with the pharmacology of abused drugs, as 5-HT2A agonists are thought to be hallucinogenic while […] are associated with valvular heart disease and pulmonary hypertension; activity at these receptors would be considered off-target liabilities. On the other hand, agonists at 5-HT2C may be beneficial as potential pharmacotherapies for drug abuse and appetite suppression.
(§2) HEK293 cells stably expressing the human 5-HT2A receptor were used. The day before the assay, cells were plated into 96-well black-walled assay plates at 40,000 cells/well in DMEM-HG supplemented with 10% fetal bovine serum, 100 units of penicillin and streptomycin, and 15 mM HEPES. The cells were incubated overnight at 37° C., 5% CO2. Prior to the assay, Calcium 5 dye (Molecular Devices) was reconstituted according to the manufacturer instructions. The reconstituted dye was diluted 1:40 in pre-warmed (37° C.) assay buffer (1×HBSS, 20 mM HEPES, 2.5 mM probenecid, pH 7.4 at 37° C.). Growth medium was removed and the cells were gently washed with 100 μL of pre-warmed (37° C.) assay buffer. The cells were incubated for 45 minutes at 37° C., 5% CO2 in 200 μL of the diluted Calcium 5 dye. Serial dilutions of the test compounds were prepared in 1% DMSO/assay buffer, aliquoted into 96-well polypropylene plates, and warmed to 37° C. After the dye-loading incubation period, the cells were pre-treated with 25 μL of 9% DMSO/assay buffer and incubated for 15 min at 37° C. After the pre-treatment incubation period, the plate was read with a FlexStation® II (Molecular Devices). Calcium-mediated changes in fluorescence were monitored every 1.52 seconds over a 60 second time period, with the FlexStation® II adding 25 μL of test compound dilutions at the 19 second time point (excitation at 485 nm, detection at 525 nm). Peak kinetic reduction (SoftMax, Molecular Devices) relative fluorescent units (RFU) were plotted against compound concentration. Data were fit to the appropriate three-parameter logistic curve to generate EC50 values (GraphPad Prism 6.0, GraphPad Software, Inc., San Diego, Calif.). 5-HT2B and 5-HT2C calcium mobilization assays were run in the same manner with stable 5-HT2B and 5-HT2C HEK293 cells except that 35,000 cells/well were used instead of 40,000 cells/well.

[1] = molecular target: T2, Serotonin Transporter (SERT) (Rattus norvegicus, UniProt P31652); assay: SERT release assay, rat brain synaptosomes; format: biochemical; conditions: for EC50: release of [3H]5-HT from rat brain synaptosomes, mean±SD (n=3)
T2 construct: synaptosomes were prepared from whole brain minus striatum and cerebellum for the NET and SERT assays; from tissue; host or cells: rat whole brain minus striatum and cerebellum, synaptosomes
Description: as §1, with “Compounds active in both assays are releasers while compounds active only in the uptake inhibition assay are uptake inhibitors. Active compounds were then fully characterized by running 8-point concentration response curves in the assay corresponding to their mechanism of action.” left out
(§3) All animal studies were conducted in facilities fully accredited by the Association for the Assessment and Accreditation of Laboratory Animal Care (AAALAC) and experiments were performed in accordance with the Institutional Care and Use Committee (IACUC) of the National Institute on Drug Abuse Intramural Research Program (NIDA IRP). Rats were euthanized by CO2 narcosis, and brains were processed to yield synaptosomes as previously described (Rothman, R B, et al., Eur. J. Pharmacol. 2002, 447(1), 51.). Synaptosomes were prepared from rat striatum for the DAT assays, whereas synaptosomes were prepared from whole brain minus striatum and cerebellum for the NET and SERT assays.
(§4) For release assays, 9 nM [^3H]1-methyl-4-phenylpyridinium ([^3H]MPP+) was used as the radiolabeled substrate for DAT and NET, while 5 nM [^3H]5-HT was used as a substrate for SERT. All buffers used in the release assay methods contained 1 μM reserpine to block vesicular uptake of substrates. The selectivity of release assays was optimized for a single transporter by including unlabeled blockers to prevent the uptake of [^3H]MPP+ or [^3H]5-HT by competing transporters. Synaptosomes were preloaded with radiolabeled substrate in Krebs-phosphate buffer for 1 h (steady state). Release assays were initiated by adding 850 μL of preloaded synaptosomes to 150 μL of test drug. Release was terminated by vacuum filtration and retained radioactivity was quantified as described for uptake inhibition. Concentration-response curves were generated to yield EC50 values.
(§5) Substrate reversal experiments were conducted to validate substrate activity. The releasing ability of test compounds was tested at an EC80 concentration in the absence and presence of an uptake inhibitor (250 nM […] for DAT, 166 nM desipramine for NET, 100 nM fluoxetine for SERT).

5-HT2B = molecular target: T3, 5-HT2B (Homo sapiens, UniProt P41595); assay: 5-HT2B calcium mobilization assay in HEK293 cells (agonist activity); format: cell-based; conditions: calcium mobilization, agonist, HEK293; for EC50: read-out: 5-HT2B EC50, (nM ± SEM)
T3 construct: expressed in transfected cells
Description: as §1, §2

[2] = molecular target: Norepinephrine Transporter (NET) (Rattus norvegicus, UniProt Q9WTR4); format: biochemical; conditions: read-out: EC50, (nM ± SD) NET; release of [3H]MPP+ from rat brain synaptosomes; mean±SD (n=3)
5-HT2C = molecular target: T4, 5-HT2C (Homo sapiens, UniProt P28335); assay: 5-HT2C calcium mobilization assay in HEK293 cells (agonist activity); format: cell-based; conditions: HEK293; for EC50: read-out: 5-HT2C EC50, (nM ± SEM); for Emax at 10 µM: read-out: 5-HT2C activity relative to the control 5-HT EMAX
T4 construct: expressed in transfected cells
T4 sequence (P28335 33-458): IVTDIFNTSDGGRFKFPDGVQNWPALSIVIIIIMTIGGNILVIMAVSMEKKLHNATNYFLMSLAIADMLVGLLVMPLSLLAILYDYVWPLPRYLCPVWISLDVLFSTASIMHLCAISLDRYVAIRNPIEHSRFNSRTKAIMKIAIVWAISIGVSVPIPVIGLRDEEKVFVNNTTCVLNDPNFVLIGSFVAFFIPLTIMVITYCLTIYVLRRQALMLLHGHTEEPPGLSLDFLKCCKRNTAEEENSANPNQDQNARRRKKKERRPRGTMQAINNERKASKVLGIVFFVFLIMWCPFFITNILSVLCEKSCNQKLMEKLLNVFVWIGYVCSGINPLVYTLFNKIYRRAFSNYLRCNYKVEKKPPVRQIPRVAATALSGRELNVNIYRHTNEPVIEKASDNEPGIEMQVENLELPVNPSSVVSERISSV
Description: as §1, §2

[3] = molecular target: T5, Dopamine Transporter (DAT) (Rattus norvegicus, UniProt P23977); assay: DAT release assay, rat brain synaptosomes; format: biochemical; conditions: for EC50: release of [3H]MPP+ from rat striatum synaptosomes, mean±SD (n=3)
T5 construct: Synaptosomes were prepared from rat striatum for the DAT assays; from tissue; host or cells: rat striatum synaptosomes
Description: as §1, with “Compounds active in both assays are releasers while compounds active only in the uptake inhibition assay are uptake inhibitors. Active compounds were then fully characterized by running 8-point concentration response curves in the assay corresponding to their mechanism of action.” left out
as §3, §4, §5

[4] = tested on: Norepinephrine Transporter (NET); format: biochemical, rat
cortical 5-HT = conditions: high doses; cited from earlier work
[5] = agonist, HEK293, read-out: 5-HT2A EC50, (nM ± SEM)

T2 sequence (P31652 whole entry): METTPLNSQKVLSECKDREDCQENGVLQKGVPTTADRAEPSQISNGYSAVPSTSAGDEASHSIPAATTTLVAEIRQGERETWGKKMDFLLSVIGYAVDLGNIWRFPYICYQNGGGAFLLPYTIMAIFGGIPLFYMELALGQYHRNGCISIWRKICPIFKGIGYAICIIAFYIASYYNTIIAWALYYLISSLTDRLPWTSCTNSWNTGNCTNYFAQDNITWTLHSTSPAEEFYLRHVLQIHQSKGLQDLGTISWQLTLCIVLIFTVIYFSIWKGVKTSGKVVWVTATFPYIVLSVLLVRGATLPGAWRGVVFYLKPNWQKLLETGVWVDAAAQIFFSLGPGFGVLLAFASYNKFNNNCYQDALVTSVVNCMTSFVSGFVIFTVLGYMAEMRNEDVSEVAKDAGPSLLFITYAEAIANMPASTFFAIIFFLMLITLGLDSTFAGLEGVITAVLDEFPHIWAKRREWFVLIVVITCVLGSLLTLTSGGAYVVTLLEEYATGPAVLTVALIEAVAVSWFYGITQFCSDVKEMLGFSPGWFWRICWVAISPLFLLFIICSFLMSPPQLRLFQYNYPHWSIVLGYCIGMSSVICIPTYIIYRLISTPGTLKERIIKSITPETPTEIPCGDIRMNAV
T3 sequence (P41595 whole entry): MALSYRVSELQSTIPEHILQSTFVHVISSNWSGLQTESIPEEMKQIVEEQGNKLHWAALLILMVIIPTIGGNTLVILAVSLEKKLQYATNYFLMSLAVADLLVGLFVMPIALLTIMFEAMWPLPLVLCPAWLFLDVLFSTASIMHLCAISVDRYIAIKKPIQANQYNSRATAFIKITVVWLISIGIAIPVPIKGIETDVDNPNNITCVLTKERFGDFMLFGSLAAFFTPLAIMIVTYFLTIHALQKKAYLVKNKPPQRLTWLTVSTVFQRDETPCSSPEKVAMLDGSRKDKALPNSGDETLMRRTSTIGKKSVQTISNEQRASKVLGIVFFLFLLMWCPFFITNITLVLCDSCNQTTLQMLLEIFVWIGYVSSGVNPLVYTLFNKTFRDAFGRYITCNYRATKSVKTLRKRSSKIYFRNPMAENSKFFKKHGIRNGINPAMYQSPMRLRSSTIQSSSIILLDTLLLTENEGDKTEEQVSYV
T1 sequence (P28223 whole entry): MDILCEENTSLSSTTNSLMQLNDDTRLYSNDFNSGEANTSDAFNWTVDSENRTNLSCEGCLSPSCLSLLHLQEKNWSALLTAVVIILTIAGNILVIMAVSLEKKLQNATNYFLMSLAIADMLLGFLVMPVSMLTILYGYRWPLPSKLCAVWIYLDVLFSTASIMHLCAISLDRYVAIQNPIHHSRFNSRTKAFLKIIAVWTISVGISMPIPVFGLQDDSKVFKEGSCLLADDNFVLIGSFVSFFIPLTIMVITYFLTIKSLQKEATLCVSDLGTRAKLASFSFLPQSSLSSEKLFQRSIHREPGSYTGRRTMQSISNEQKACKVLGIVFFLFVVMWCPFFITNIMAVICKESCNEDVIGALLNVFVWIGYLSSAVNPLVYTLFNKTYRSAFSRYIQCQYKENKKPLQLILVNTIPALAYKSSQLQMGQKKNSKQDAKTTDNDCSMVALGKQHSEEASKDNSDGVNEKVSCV
T5 sequence (P23977 whole entry): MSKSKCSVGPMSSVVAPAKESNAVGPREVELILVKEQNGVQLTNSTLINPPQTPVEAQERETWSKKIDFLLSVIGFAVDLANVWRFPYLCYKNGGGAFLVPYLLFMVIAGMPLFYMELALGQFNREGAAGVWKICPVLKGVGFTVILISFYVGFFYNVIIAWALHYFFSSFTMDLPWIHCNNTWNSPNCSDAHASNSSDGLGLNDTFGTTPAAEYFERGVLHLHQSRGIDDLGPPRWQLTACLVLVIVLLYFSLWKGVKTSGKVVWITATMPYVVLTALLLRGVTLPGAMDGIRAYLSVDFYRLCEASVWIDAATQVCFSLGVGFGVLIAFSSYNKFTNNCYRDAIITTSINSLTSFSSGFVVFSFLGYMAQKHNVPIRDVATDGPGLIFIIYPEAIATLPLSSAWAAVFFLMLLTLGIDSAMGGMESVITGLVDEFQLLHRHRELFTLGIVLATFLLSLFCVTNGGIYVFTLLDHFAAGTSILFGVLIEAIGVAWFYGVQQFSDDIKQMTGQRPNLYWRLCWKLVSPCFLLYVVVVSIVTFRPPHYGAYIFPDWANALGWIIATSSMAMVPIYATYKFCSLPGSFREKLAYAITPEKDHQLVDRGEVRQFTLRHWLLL

Structure (SMILES)	EC50 (human 5-HT2A receptor; [5])	EC50 (human 5-HT2A receptor; read-out: 5-HT2A EC50)	EC50 [1]	EC50 (5-HT2B)	EC50 [2]	EC50 (5-HT2C; calcium mobilization, agonist)	potency at releasing DA compared to NE [3]	selectivity for releasing 5-HT compared to DA, given as fold more potent at the DAT [3]	EC50 [3]	fold reduction in potency at 5-HT2A compared to 8 (human 5-HT2A receptor)	Emax (human 5-HT2A receptor; HEK293)	potency for releasing 5-HT relative to DA (SERT/DAT selectivity) [1]	Emax at 10 µM (5-HT2C)	selectivity for releasing NE relative to DA (NET compared to DAT) [4]	5-HT2A EC50, (nM ± SEM) (human 5-HT2A receptor; agonist, HEK293)	potency for 5-HT release compared to NE release [1]	5-HT2B EC50, (nM ± SEM) (5-HT2B)	5-HT2C EC50, (nM ± SEM) (5-HT2C; calcium mobilization, agonist)	potency for releasing DA relative to 5-HT [3]	depletion of cortical 5-HT (cortical 5-HT)
CC(N)CC#Cc1ccccc1 (racemic) [compound 4, 1-Methyl-4-phenyl-but-3-ynylamine]	> 10000 nM	> 10000 nM	384 ± 110 nM	> 10000 nM	2980 nM	> 10000 nM	3 fold	2.6 fold	997 nM											
CC(N)C/C=C/c1ccccc1 (racemic) [compound 6, (3E)-1-Methyl-4-phenyl-but-3-enylamine]	5620 ± 1700 nM		54 ± 8 nM	> 10000 nM	239 ± 59 nM	> 10000 nM			272 ± 44 nM	3 fold	~80%									
CC(N)C/C=C\c1ccccc1 (racemic) [compound 8, (3Z)-1-Methyl-4-phenyl-but-3-enylamine]	1860 nM		646 nM	> 10000 nM	621 ± 190 nM	> 10000 nM			900 ± 100 nM		90%	1.4 fold	< 50%							
C[C@@H](N)CC#Cc1ccccc1 [R-4, (1R)-1-Methyl-4-phenyl-but-3-ynylamine]			288 nM	> 10000 nM	496 nM	> 10000 nM		2.3 fold	660 ± 190 nM											
C[C@@H](N)C/C=C/c1ccccc1 [R-6, (1R,3E)-1-Methyl-4-phenyl-but-3-enylamine]			109 ± 29 nM	> 10000 nM	279 ± 24 nM	> 10000 nM			540 nM											
C[C@@H](N)C/C=C\c1ccccc1 [R-8, (1R,3Z)-1-Methyl-4-phenyl-but-3-enylamine]	> 10000 nM	> 10000 nM	1160 ± 160 nM	> 10000 nM	211 nM	> 10000 nM			1420 nM			1.2 fold		6.7 fold						
C[C@H](N)CC#Cc1ccccc1 [S-4, (1S)-1-Methyl-4-phenyl-but-3-ynylamine]	4950 ± 1400 nM		756 ± 79 nM	> 10000 nM	784 ± 190 nM	> 10000 nM			443 nM	2.7 fold	~80%	essentially equipotent								
C[C@H](N)C/C=C/c1ccccc1 [S-6, (1S,3E)-1-Methyl-4-phenyl-but-3-enylamine]	> 10000 nM		40 nM	> 10000 nM	138 nM	> 10000 nM	almost equal		206 nM			5 fold			inactive	3.5 fold	inactive	inactive		
C[C@H](N)C/C=C\c1ccccc1 [S-8, (1S,3Z)-1-Methyl-4-phenyl-but-3-enylamine]	1600 nM		863 ± 86 nM	> 10000 nM	170 nM				304 nM		102%		< 50%						2.2 fold	
CC(N)Cc1ccc2ccccc2c1 (stereo not drawn) [compound 2]																				do not cause depletion of cortical 5-HT
CC(N)/C=C/c1ccccc1 (stereo not drawn) [compound 10, (2E)-1-Methyl-3-phenyl-prop-2-enylamine]	> 10000 nM			> 10000 nM	308 ± 100 nM	> 10000 nM			666 nM					2.2 fold	inactive					
CC(N)/C=C\c1ccccc1 (stereo not drawn) [compound 11, (2Z)-1-Methyl-3-phenyl-prop-2-enylamine]	> 10000 nM			> 10000 nM	301 ± 76 nM	> 10000 nM			1110 ± 150 nM					3.7 fold	inactive					
